Consider 14 compounds from PubChem BioAssay (NCI).

The structures appear in SMILES notation.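 Interpolation was linear, between the two tested concentrations surrounding the appropriate level; five concentrations were tested over 48 hours in 96-well plates. GI50 is the concentration that inhibits growth by half. The concentration for full growth arrest is given as TGI.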

Holding throughout (assay): DTP human tumour cell line panel, 48 h
In assay [1] the test system is MDA-N.
Assay [2] relates to NCI-H226 lung.
Assay [3] relates to KM12 colon.
Assay [4] deals with RXF 393 renal.
For assay [5], the system named is LOX IMVI melanoma.
Assay [6] relates to NCI-H460 lung.
In assay [7] the test system is EKVX NSCLC.
Assay [8] concerns SF-268 CNS.
The subject of assay [9] is M14 melanoma.
In assay [10] the test system is IGROV1 ovarian.

As to `Cc1ccc(OCC2OC(n3cnc4c(Cl)nc(N)nc43)CC2Oc2ccc(C)cc2)cc1` (configuration not stated), the TGI in [1], in assay [2], in [3], in [4], in assay [5] and in [6] was over 100 µM in each case. Besides, the TGI (commonly the concentration giving total growth inhibition) in assay [7] is over 59.3 µM; in assay [8], over 100 µM; in assay [9] it was over 100 µM; in assay [10] it was 61.5 µM.

For `CC1CCCC2(CC[N+](C)(CCC[N+](C)(C)C)CC2)C1` (configuration not stated), the TGI in assay [1], in assay [2], in assay [3], in assay [4], in assay [5] and in assay [6] was over 100 µM each time. Further, the TGI in assay [7], in assay [8], in assay [9] and in assay [10] was over 100 µM each time.

Consider `COc1ccc2c3c1OC1C(=O)C=CC4(CC2)N(C)CCC314` (configuration not stated), for which the TGI in assay [1] was over 100 µM; in assay [3], 43.4 µM; in [4], over 100 µM; in [5], over 100 µM; in assay [6], 71.1 µM; in [7] it was 92.8 µM. The TGI was 91 µM in [8], 49.6 µM in [9] and over 100 µM in assay [10].

As for `O=[N+]([O-])c1ccc2sc(C=Nc3cnccn3)cc2c1`, the TGI in assay [1] is over 100 µM; in assay [3] it was over 100 µM; in assay [4] it was 33.5 µM; in [5], 60.6 µM; in [6], over 100 µM; in assay [7] it was over 100 µM. In addition, the TGI in [8], in [9] and in [10] was over 100 µM each time.

With `CCNC(=S)N=Nc1c(O)[nH]c2ccc([N+](=O)[O-])cc12`, the TGI is over 100 µM in assay [1]; over 100 µM in assay [2]; over 100 µM in [3]; 80.4 µM in [4]; over 100 µM in assay [5]; over 100 µM in [6]. In addition, the TGI in assay [7], in assay [8], in assay [9] and in assay [10] was over 100 µM throughout.

For the compound `O=c1[nH]nc(-c2ccccc2)n1/N=C\c1ccccc1`, the concentration for total growth inhibition (TGI) in [1], in [2], in assay [3], in [4], in [5] and in [6] was over 100 µM in each case. Moreover, the TGI in [7] and in assay [8] was over 100 µM throughout.

On to `COc1cccc(CCN2CCN(CCCc3ccccc3)CC2)c1`, for which the TGI in assay [1], in assay [2], in assay [3], in [4], in [5] and in assay [6] was over 100 µM each time. Moreover, the TGI in [7] was over 100 µM; in [8], over 100 µM; in [9] it was 60.6 µM; in assay [10], over 100 µM.

Consider `CCCC(=O)NC(Nc1ccc(S(=O)(=O)Nc2cc(C)on2)cc1)(C(=O)OCC)C(F)(F)F` (configuration not stated), for which the TGI in assay [1], in assay [2], in assay [3], in assay [4], in [5] and in assay [7] was over 100 µM throughout. Moreover, the TGI in [8], in assay [9] and in assay [10] was over 100 µM in each case.

Take `C[N+](C)(C)c1ccc(C(N)C(=O)O)cc1` (configuration not stated): the TGI in [1], in assay [2], in [3], in assay [4], in [5] and in [6] was over 100 µM throughout. Besides, the TGI in assay [7], in assay [8], in assay [9] and in assay [10] was over 100 µM throughout.

In the case of `NCCCN(CCCN(C(=O)Nc1ccccc1)c1ccccc1)C(=O)Nc1ccccc1`, the TGI in assay [1] is over 100 µM; in [2], over 100 µM; in assay [4] it was 86.2 µM; in assay [5] it was 56.6 µM; in [6], 94.8 µM; in [7], over 100 µM. Moreover, the TGI was over 100 µM in assay [8], 44.8 µM in assay [9] and over 100 µM in assay [10].

Turning to `CC(=O)NCCC1CN(C(=O)/C=C/I)c2ccccc21` (configuration not stated), the TGI in assay [1] came to 9.26 µM; in assay [2] it was 29.2 µM; in assay [3], 2.67 µM; in [4], 10.8 µM; in assay [5], 3.25 µM; in assay [6], 16.9 µM. Further, the TGI in [7] turned out to be 33.3 µM; in [8], 23.5 µM; in assay [9] it was 8.5 µM; in [10] it was 18.7 µM.

Consider `COc1ccc(N2C(=O)CC(=O)N(C(=O)COc3ccc(OCC(=O)N4C(=O)CC(=O)N(c5ccc(OC)cc5)C4=S)cc3)C2=S)cc1`, for which the TGI was over 100 µM in [1]; over 100 µM in assay [2]; 32.6 µM in [3]; 77.3 µM in assay [4]; over 100 µM in [6]; over 100 µM in assay [7]. Also, the TGI in assay [8], in [9] and in assay [10] was over 100 µM each time.

As to `CO/N=C1\CC(NC(=O)CNC(=O)OC(C)(C)C)c2ccsc21` (configuration not stated), the TGI in [1], in assay [2], in assay [4], in assay [5], in assay [6] and in [7] was over 100 µM each time. Moreover, the TGI in assay [8], in assay [9] and in assay [10] was over 100 µM throughout.

On to `NS(=O)(=O)c1ccc(/C=C/c2ccc(F)cc2)cc1`, for which the TGI in assay [1] was over 100 µM; in [2], 27 µM; in assay [3], 67 µM; in assay [4] it was 46.8 µM; in assay [5], over 100 µM; in [6] it was over 100 µM. For the same compound, the TGI in assay [7] was over 100 µM; in [8], over 100 µM; in assay [9], over 100 µM; in [10] it was 61.9 µM. For the same compound, the GI50 (in general, the concentration giving 50% growth inhibition) in assay [2] is 7.97 µM; in assay [3], 16.3 µM; in assay [5] it was 26.7 µM; in assay [8], 20.5 µM; in [10] it was 20.9 µM.
